Assays:
Assay type in all cases: in vivo
Downy Brome = experiment: Pre-emergent herbicidal activity (Table A); settings: Bromus tectorum, pre-emergence, Dobr, 11.2 kg/ha, 10-14 days, read-out: herbicidal rating (% inhibition)
Outline: (§1)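 Seeds or vegetative propagules were set on topsoil compacted to 0.95 to 1.27 cm below the pan rim, then covered with soil thoroughly mixed with a known amount of test compound in acetone or water carrier. Ratings follow a scale of percent inhibition per species.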

Morningglory = experiment: Pre-emergent herbicidal activity (Table A); settings: Ipomoea, pre-emergence, Mogl, 11.2 kg/ha, 10-14 days, read-out: herbicidal rating (% inhibition)
Outline: as §1

Yellow Nutsedge = experiment: Pre-emergent herbicidal activity (Table A); settings: Cyperus, pre-emergence, Yens, 11.2 kg/ha, 10-14 days, read-out: herbicidal rating (% inhibition)
Outline: as §1

Cocklebur = experiment: Pre-emergent herbicidal activity (Table A); settings: Xanthium strumarium, pre-emergence, Cobu, 11.2 kg/ha, 10-14 days, read-out: herbicidal rating (% inhibition)
Outline: as §1

Rice = experiment: plant injury after spraying emerged plants (Table D); design: scale not given here
Outline: (§2)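 Seeds or perennial propagules were pressed onto steam-sterilized sieved silt loam topsoil and covered with 1.27 cm of a 50:50 topsoil and peat moss/vermiculite/wetting agent mix. Pans were kept on a greenhouse bench over capillary mat and subirrigated as needed.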

Corn = experiment: as above; design: scale not given here
Outline: as §2

Lacg = experiment: as above; design: scale not given here
Outline: as §2

Cobu = experiment: as above; design: scale not given here
Outline: as §2

Bygr = experiment: as above; design: scale not given here
Outline: as §2

Grft = experiment: as above; design: scale not given here
Outline: as §2

Prmi = experiment: as above; design: scale not given here
Outline: as §2

Mogl = experiment: as above; design: scale not given here
Outline: as §2

Sobe = experiment: as above; design: scale not given here
Outline: as §2

Grso = experiment: as above; design: scale not given here
Outline: as §2

Whez = experiment: as above; design: scale not given here
Outline: as §2

Dobr = experiment: as above

COC(=O)c1c(OC)nc(C(F)(F)F)c(C(=O)NCCCBr)c1CC(C)C [Compound 97, 3-pyridinecarboxylic acid, 5-[[(3-bromopropyl)amino)carbonyl]-2-methoxy-4-(2-methylpropyl)-6-(trifluoromethyl)-, methyl ester]
inhibition at 11200 g/ha (Downy Brome): 50 to 74%
inhibition at 11200 g/ha (Morningglory): 50 to 74%
inhibition at 11200 g/ha (Yellow Nutsedge): 0 to 24%
inhibition at 11200 g/ha (Cocklebur): 0 to 24%
plant injury rating, Rice (Rice; 0.0701 kg/ha): 0
plant injury rating, Rice (Rice; 0.2803 kg/ha): 0
plant injury rating, Rice (Rice; 1.1210 kg/ha): 0
plant injury rating, Rice (Rice; 5.6050 kg/ha): 0
plant injury rating, Corn (Corn; 0.0701 kg/ha): 0
plant injury rating, Corn (Corn; 0.2803 kg/ha): 0
plant injury rating, Corn (Corn; 1.1210 kg/ha): 0
plant injury rating, Corn (Corn; 5.6050 kg/ha): 0
plant injury rating, Lacg (Lacg; 0.0701 kg/ha): 0
plant injury rating, Lacg (Lacg; 0.2803 kg/ha): 0
plant injury rating, Lacg (Lacg; 1.1210 kg/ha): 2
plant injury rating, Lacg (Lacg; 5.6050 kg/ha): 0
plant injury rating, Cobu (Cobu; 0.0701 kg/ha): 0
plant injury rating, Cobu (Cobu; 0.2803 kg/ha): 0
plant injury rating, Cobu (Cobu; 1.1210 kg/ha): 0
plant injury rating, Cobu (Cobu; 5.6050 kg/ha): 0
plant injury rating, Bygr (Bygr; 0.0701 kg/ha): 0
plant injury rating, Bygr (Bygr; 0.2803 kg/ha): 0
plant injury rating, Bygr (Bygr; 1.1210 kg/ha): 0
plant injury rating, Bygr (Bygr; 5.6050 kg/ha): 0
plant injury rating, Grft (Grft; 0.0701 kg/ha): 0
plant injury rating, Grft (Grft; 0.2803 kg/ha): 0
plant injury rating, Grft (Grft; 1.1210 kg/ha): 0
plant injury rating, Grft (Grft; 5.6050 kg/ha): 0
plant injury rating, Prmi (Prmi; 0.0701 kg/ha): 0
plant injury rating, Prmi (Prmi; 0.2803 kg/ha): 0
plant injury rating, Prmi (Prmi; 1.1210 kg/ha): 0
plant injury rating, Prmi (Prmi; 5.6050 kg/ha): 0
plant injury rating, Mogl (Mogl; 0.0701 kg/ha): 0
plant injury rating, Mogl (Mogl; 0.2803 kg/ha): 0
plant injury rating, Mogl (Mogl; 1.1210 kg/ha): 0
plant injury rating, Mogl (Mogl; 5.6050 kg/ha): 0
plant injury rating, Sobe (Sobe; 0.0701 kg/ha): 0
plant injury rating, Sobe (Sobe; 0.2803 kg/ha): 0
plant injury rating, Sobe (Sobe; 1.1210 kg/ha): 0
plant injury rating, Sobe (Sobe; 5.6050 kg/ha): 0
plant injury rating, Grso (Grso; 0.0701 kg/ha): 0
plant injury rating, Grso (Grso; 0.2803 kg/ha): 0
plant injury rating, Grso (Grso; 1.1210 kg/ha): 0
plant injury rating, Grso (Grso; 5.6050 kg/ha): 0
plant injury rating, Whez (Whez; 0.0701 kg/ha): 0
plant injury rating, Whez (Whez; 0.2803 kg/ha): 0
plant injury rating, Whez (Whez; 1.1210 kg/ha): 0
plant injury rating, Whez (Whez; 5.6050 kg/ha): 0
plant injury rating, Dobr (Dobr; 0.0701 kg/ha): 0
plant injury rating, Dobr (Dobr; 0.2803 kg/ha): 0
plant injury rating, Dobr (Dobr; 1.1210 kg/ha): 0
plant injury rating, Dobr (Dobr; 5.6050 kg/ha): 0

COC(=O)c1c(OC)nc(C(F)(F)F)c(C2=NCCS2)c1CC(C)C [Compound 50, 3-pyridinecarboxylic acid, 5-(4,5-dihydro-2-thiazolyl)-2-methoxy-4-(2-methylpropyl)-6-(trifluoromethyl)-, methyl ester]
inhibition at 11200 g/ha (Downy Brome): 75 to 100%
inhibition at 11200 g/ha (Morningglory): 75 to 100%
inhibition at 11200 g/ha (Yellow Nutsedge): 75 to 100%
inhibition at 11200 g/ha (Cocklebur): 75 to 100%
plant injury rating, Rice (Rice; 0.0701 kg/ha): 0
plant injury rating, Rice (Rice; 0.2803 kg/ha): 0
plant injury rating, Rice (Rice; 1.1210 kg/ha): 1
plant injury rating, Rice (Rice; 5.3808 kg/ha): 0
plant injury rating, Corn (Corn; 0.0701 kg/ha): 0
plant injury rating, Corn (Corn; 0.2803 kg/ha): 0
plant injury rating, Lacg (Lacg; 0.2803 kg/ha): 3
plant injury rating, Lacg (Lacg; 1.1210 kg/ha): 3
plant injury rating, Lacg (Lacg; 5.3808 kg/ha): 3
plant injury rating, Cobu (Cobu; 0.0701 kg/ha): 0
plant injury rating, Cobu (Cobu; 0.2803 kg/ha): 1
plant injury rating, Cobu (Cobu; 1.1210 kg/ha): 2
plant injury rating, Cobu (Cobu; 5.3808 kg/ha): 3
plant injury rating, Bygr (Bygr; 0.0701 kg/ha): 0
plant injury rating, Bygr (Bygr; 0.2803 kg/ha): 0
plant injury rating, Bygr (Bygr; 1.1210 kg/ha): 1
plant injury rating, Grft (Grft; 0.0701 kg/ha): 0
plant injury rating, Grft (Grft; 0.2803 kg/ha): 1
plant injury rating, Grft (Grft; 1.1210 kg/ha): 1
plant injury rating, Grft (Grft; 5.3808 kg/ha): 2
plant injury rating, Prmi (Prmi; 0.0701 kg/ha): 0
plant injury rating, Prmi (Prmi; 0.2803 kg/ha): 1
plant injury rating, Mogl (Mogl; 0.0701 kg/ha): 1
plant injury rating, Mogl (Mogl; 0.2803 kg/ha): 2
plant injury rating, Mogl (Mogl; 1.1210 kg/ha): 2
plant injury rating, Mogl (Mogl; 5.3808 kg/ha): 3
plant injury rating, Sobe (Sobe; 0.0701 kg/ha): 0
plant injury rating, Sobe (Sobe; 0.2803 kg/ha): 1
plant injury rating, Sobe (Sobe; 1.1210 kg/ha): 2
plant injury rating, Sobe (Sobe; 5.3808 kg/ha): 3
plant injury rating, Grso (Grso; 0.0701 kg/ha): 0
plant injury rating, Grso (Grso; 0.2803 kg/ha): 0
plant injury rating, Grso (Grso; 1.1210 kg/ha): 0
plant injury rating, Whez (Whez; 0.0701 kg/ha): 0
plant injury rating, Whez (Whez; 0.2803 kg/ha): 0
plant injury rating, Whez (Whez; 1.1210 kg/ha): 0
plant injury rating, Whez (Whez; 5.3808 kg/ha): 0
plant injury rating, Dobr (Dobr; 0.0701 kg/ha): 0
plant injury rating, Dobr (Dobr; 1.1210 kg/ha): 0
plant injury rating, Dobr (Dobr; 5.3808 kg/ha): 0
